≈ marks a conversion by molar mass, not a printed value. Where two headings read alike, the source gives them in different places.
Columns and labels:
[1] = system: larvae of the cattle tick (Boophilus microplus); assay: LC50 against cattle tick larvae (Example 72); assay type: in vivo; conditions: Rhipicephalus microplus, 24 hours, 0-6 scale (ppm)
Experimental: (§1) If complete kill was obtained at the highest dosage rate, the test was repeated using a logarithmically reducing dose regime until less than 50% mortality was recorded. The LC50 was then calculated from the line of best fit from the data plotted on log/provit analysis paper.
(§2) Similarly LC50 values were obtained against various pests as described in Examples 70-73 where, however, the LC50 values are abbreviated on a 0-6 scale where
Similarly, LC50 values were obtained for each of Compounds 2 and 4 against larvae of the cattle tick (Boophilus microplus), of the order Acarina. The tests were carried out evaporating 1 ml of an acetone solution of the compound on 9 cm diameter filter papers, folding the papers twice in half after drying to give quadrant shaped packets and sealing the tick larvae therein for 24 hours by means of a paper clip. The highest dosage rate employed was 1000 ppm.

[2] = system: 2nd stage nymph of the German cockroach (Blattella germanica); assay: LC50 against German cockroach nymphs in treated glass tubes (Example 69); assay type: in vivo; conditions: for LC50 value: 2nd stage nymph German cockroach, 48 hours, 0-6 scale
Experimental: Compounds 2 and 4 and also 2,2-dimethyl-1,3- benzodioxol-4-yl N-methylcarbamate(compound 5) and 2,2-dimethyl-1,3-benzodioxol-4-yl N-acetyl-N-methylcarbamate (compound 6) were tested for activity against the 2nd stage nymph of the German cockroach (Blattella germanica), of the order Orthoptera, by treating the walls of glass tubes (9.0 cm high × 4.5 cm diameter) with acetone solutions of the compounds and after the acetone had evaporated caging the insects in the tubes for 48 hours. The highest dosage rate employed was 50 mg/ft^2 (532 mg/m^2).
as §1
The LC50 values are abbreviated on a 0-6 scale where

[3] = Acute oral LD50 to mice (Example 76); design: species or system mouse (Carshalton CFW strain); conditions: in vivo, mouse, by stomach tube in 0.4% tragacanth, up to 5 days
Experimental: (§3) Mammalian toxicity was assessed by measuring the acute oral LD50 to rats and mice. Componds were dissolved or suspended in a 0.4% tragacanth solution and administered by stomach tube to the test animal. The mice used were 10 to 15 g weanlings of the Carshalton CFW strain whilst the rats were 30 to 40 g weanlings of Wystar strain. Three replicates per dosage rate were employed and the mortality was recorded daily for up to 5 days. The LD50 values were calculated as for those for insecticidal and acaricidal activity above.

[4] = system: larvae of the sheep maggot fly (Lucilia sericata); assay: LC50 against sheep maggot fly larvae on dental rolls (Example 71); assay type: in vivo; conditions: for LC50: Lucilia sericata, read-out: LC50 value; for activity against sheep maggot fly (in words): compared with compound 5
Experimental: as §1, §2
Similarly, LC50 values were obtained for each of Compounds 1, 2, 3, 4, 5 and 6 against larvae of the sheep maggot fly (Lucilia sericata), of the order Diptera. The tests were carried out by placing newly hatched larvae on dental rolls contained in glass vials and soaked with 1 ml of blood serum containing the compound. The mortality was assessed after 24 hours. The highest dosage rate employed was 1000 ppm.

[5] = system: adult red spider mites (Tetranychus telarius); assay: LC50 against adult red spider mites on sprayed French beans (Example 73); assay type: in vivo; conditions: read-out: LC50 value
Experimental: as §1, §2
Similarly, LC50 values were obtained for each of Compounds 1, 2, 4, 5 and 6 against adult red spider mites (Tetranychus telarius), of the order Acarina. The tests were carried out by spraying infected French beans with a 50% acetone water solution of the compound, containing 500 ppm of Lissapol NX as a wetting agent, and recording the mortality after 48 hours. The highest dosage rate employed was 1000 ppm which is equivalent to 10 lb/acre (11.20 kg/ha).

rats and mice = assay: Mammalian toxicity (overall comparison); assay type: in vivo; conditions: compared with compound 5
Experimental: as §3

[6] = system: German cockroaches (Blattella germanica); assay: Persistency against German cockroaches on treated glass plates (Example 74); assay type: in vivo; conditions: 100 mg/ft^2 (1.065 g/m^2), 2nd stage nymphs, 7 day intervals until less than 50% mortality
Experimental: Persistency was measured against German cockroaches (Blattella germanica), or the order Orthoptera, by treating glass plates with acetone solutions of the compunds listed below to produce a deposit equivalent to 100 mg/ft^2 (1.065 g/m^2), and caging 2nd stage nymph cockroaches on these surfaces for 48 hours at 7 day intervals until less than 50% mortality was recorded.

[7] = system: adult female houseflies (Musca domestica); assay: LC50 against adult female houseflies on filter papers (Example 70); assay type: in vivo; conditions: for LC50 value: adult female houseflies, 24 hours, 0-6 scale (mg/ft^2); for activity against houseflies (in words): compared with compound 5
Experimental: as §1, §2
LC50 values were obtained for each of Compounds 1, 2, 3, 4, 5 and 6 against adult female houseflies (Musca domestica), of the order Diptera. The tests were carried out by adding acetone solutions of the compounds to 9 cm diameter filter papers in the base of 9 cm diameter crystallising dishes, placing the houseflies in the dishes after the acetone had evaporated, closing the dishes with Petri dish lids and counting the mortality after 24 hours. The highest dosage rate employed was 1000 mg/ft^2 (10.65 g/m^2).

Solubility = assay type: physicochemical; conditions: compared with compound 5
[8] = system: sheep maggot fly (Lucila sericata); assay: Persistency on sheep against sheep maggot fly; assay type: in vivo; conditions: compared with compound 5
rats = assay: Acute oral LD50 to rats (Example 76); assay type: in vivo, rat (Wystar strain); conditions: rat female, by stomach tube in 0.4% tragacanth, up to 5 days
Experimental: as §3

[9] = Acute oral LD50 to rats (Example 76); assay type: in vivo, rat (Wystar strain); conditions: in vivo, po; rat male, by stomach tube in 0.4% tragacanth, up to 5 days
Experimental: as §3

[10] = system: adult female houseflies (Musca domestica); assay: Housefly mortality on treated filter papers (Examples 32-40); assay type: in vivo; conditions: 100 milligrams per square foot, after 24 hours
Source text: 9 centimeter diameter filter papers treated with aqueous acetone solutions of each of the compounds
at rates equivalent to 100 milligrams per square foot (100 mgm./0.09 m^2.) of active ingredient were placed in 9 centimeter diameter Petri dishes. Batches of adult female houseflies (Musca domestica) lightly anaesthetised with carbon dioxide were then introduced into the dishes and a glass lid placed over each.

[11] = system: first stage larvae of the cattle tick, Boophilus microplus; assay: Cattle tick larvae in treated filter paper packets (Example 65); assay type: in vivo; conditions: 30 parts per million, 25° C, 24 hours
Experimental: Filter papers, diameter 9 cm., were treated with 1 ml. of acetone solutions containing 30 parts per million of 2,2-dimethyl-1,3-benzodioxol-4-yl N-methylcarbamate or 7-chloro-2,2-dimethyl-1,3-benzodioxol-4-yl N-methylcarbamate. When they had dried, they were folded into quadrant shaped packets, infested with 20 first stage larvae of the cattle tick, Boophilus microplus, closed with a metal clip and kept at 25° C for 24 hours.

[12] = system: second instar larvae of the cabbage white butterfly (Pieris brassicae); assay: Cabbage white butterfly larvae on treated cabbage leaf discs (Examples 41-48); assay type: in vivo; conditions: 10, 5, 1, 0.5 and 0.25 pounds per acre, three replications, after 48 hours
Source text: 7 centimeter diameter circular discs of cabbage leaves were painted with 1 milliliter aqueous acetone solutions of each of the following compounds:
in each case at concentrations equivalent to leaf applications of 10, 5, 1, 0.5 and 0.25 pounds per acre (11.2, 5.6, 1.12, 0.56 and 0.28 kg./hectare) of active ingredient. When the deposit on the leaf discs had dried, each leaf disc was placed in a 9 centimeter diameter Petri dish, infested with ten second instar larvae of the cabbage white butterfly (Pieris brassicae) and covered with a glass lid. Three replications were made with each compound at each concentration level.

[13] = system: adult apterous vetch aphids (Megoura viciae); assay: Vetch aphids on sprayed field beans (Examples 49 and 50); assay type: in vivo; conditions: 100 parts per million, 50 gallons per acre, 24 hours
Source text: Aqueous suspensions containing 100 parts per million of 2,2-dimethyl-1,3-benzodioxol-4-yl N-methylcarbamate and 2,2-dimethyl-1,3-benzodioxol-4-yl N-acetyl-N-methylcarbamate were sprayed at a rate equivalent to 50 gallons per acre (585 liters per hectare) on young field beans (Vicia faba) infested with adult apterous vetch aphids (Megoura viciae). After treatment the plants were enclosed in glass cages with gauze tops for ventilation.

[14] = system: first instar larvae of the sheep blowfly (Lucilia sericata); assay: Sheep blowfly larvae on treated cotton wool pads (Examples 53-60); assay type: in vivo; conditions: 1/2 ml. of acetone solution on cotton wool pads, after 24 hours
Experimental: Cylindrical pads of cotton wool, approximate diameter 1 cm., length 2 cms. were treated with 1/2 ml. of acetone solutions of the following carbamates:
After leaving for 12 hours to dry, the pads were treated with 1 ml. of sheep blood serum and infested with 20 first instar larvae of the sheep blowfly (Lucilia sericata). After 24 hours, the blowflies were examined and found to be all dead; insects similarly infested on untreated pads were unaffected.

[15] = system: domestic and public health insect pests; assay: Indoor treatment against domestic and public health insect pests; assay type: in vivo; conditions: 200 mg per square meter, aqueous spray containing 0.25% active ingredient; ants, bed bugs, fleas, houseflies, silverfish, mosquitoes, wasps, carpet beetles, crickets, cockroaches
Source text: In a preferred application, the compounds and especially 2,2-dimethyl-1,3-benzodioxol-4-yl N-methylcarbamate are used to combat domestic and public health insect pests. For this use, the compounds are generally applied indoors, e.g. in buildings or on ships, for example in food preparation or storage areas e.g. in houses, flats, warehouses and ships. The compounds are suitably applied at a rate of 50-2000, preferably about 50-1,000, for example 200, mg per square meter.

[16] = system: yellow fever mosquito (Aedes aegypti); assay: Persistency against yellow fever mosquito on treated glass plates (Example 75); assay type: in vivo; conditions: 100 mg/ft^2 (1.065 g/m^2), adult female mosquitos, 7 day intervals until less than 50% mortality
Experimental: Persistency was measured against yellow fever mosquito (Aedes aegypti), of the order Diptera, by treating glass plates with acetone solutions of the compounds listed below to produce a deposit equivalent to 100 mg/ft^2 (1.065 g/m^2), and caging adult female mosquitos on these surfaces for 24 hours at 7 day intervals until less than 50% mortality was recorded.

SMILES	LC50 [1] [µg/mL]	LC50 value [2]	activity against cockroaches (in words) [2]	LD50 at 120 h [3] [mg/kg]	LC50 ([4]; 24 h) [µg/mL]	activity against sheep maggot fly (in words) [4]	LC50 ([5]; 48 h) [µg/mL]	mammalian toxicity (in words) (rats and mice)	Persistency [6] [days]	LC50 value [7]	activity against houseflies (in words) [7]	solubility in organic solvents (in words) (Solubility)	persistency on sheep against sheep maggot fly (in words) [8]	Acute oral LD50, rat female (rats) [mg/kg body wt.]	LD50 at 120 h [9] [mg/kg]	mortality of houseflies [10]	other results
CCC(=O)N(C)C(=O)Oc1cccc2c1OC(C)(C)O2 [Compound 2, 2,2-dimethyl-1,3-benzodioxol-4-yl N-propionyl-N-methylcarbamate]	3 to 9 (≈ 10.7 to 32.2 µM)	6 (<0.5 mg/ft^2 (<5.3 mg/m^2))	outstandingly good activity against cockroaches	280	3 to 9 (≈ 10.7 to 32.2 µM)	as active as compound 5 against sheep maggot fly	300 to 1000 (≈ 1070 to 3580 µM)	lower mammalian toxicity than does compound 5	21 to 28	5 (3-9 mg/ft^2 (32-106 mg/m^2))	as good or better activity against houseflies than does compound 5	higher solubility in organic solvents than is compound 5	much better persistency on sheep				
CCCC(=O)N(C)C(=O)Oc1cccc2c1OC(C)(C)O2 [Compound 3, 2,2-dimethyl-1,3-benzodioxol-4-yl N-butyryl-N-methylcarbamate]				2000	3 to 9 (≈ 10.2 to 30.7 µM)	as active as compound 5 against sheep maggot fly		lower mammalian toxicity than does compound 5		4 (10-29 mg/ft^2 (107-310 mg/m^2))	as good or better activity against houseflies than does compound 5	higher solubility in organic solvents than is compound 5		> 1000	> 1000	all found to be dead	
CNC(=O)Oc1cccc2c1OC(C)(C)O2 [Compound 5, 2,2-dimethyl-1,3-benzodioxol-4-yl N-methylcarbamate]		5 (0.15-0.5 mg/ft^2 (1.6-5.3 mg/m^2))	outstandingly good activity against cockroaches	45						4 (10-29 mg/ft^2 (107-310 mg/m^2))					45	all found to be dead	LC50 ([4]; sheep maggot fly larvae, 24 hours, 0-6 scale (ppm)): 3 to 9 µg/mL (≈ 13.4 to 40.3 µM); mortality of cattle tick larvae [11]: all the ticks in the treated filter papers were dead; LC50 ([5]; adult red spider mites, 48 hours, 0-6 scale (ppm)): > 1000 µg/mL; mortality of cabbage white butterfly larvae [12]: all found to be dead; kill of vetch aphids [13]: complete kill of the aphids in 24 hours; mortality of sheep blowfly larvae [14]: all dead; effectiveness against domestic and public health pests (in words) [15]: effective against a wide range of such pests
CC(=O)N(C)C(=O)Oc1cccc2c1OCO2 [Compound 1, 1,3-benzodioxol-4-yl N-acetyl-N-methylcarbamate]				> 4000	30 to 99 (≈ 126 to 417 µM)		100 to 299 (≈ 422 to 1260 µM)	lower mammalian toxicity than does compound 5		5 (3-9 mg/ft^2 (32-106 mg/m^2))	as good or better activity against houseflies than does compound 5	higher solubility in organic solvents than is compound 5		> 1000	> 1000	all found to be dead	Persistency [16]: 35 days
CCCCC(=O)N(C)C(=O)Oc1cccc2c1OC(C)(C)O2 [Compound 4, 2,2-dimethyl-1,3-benzodioxol-4-yl N-pentanoyl-N-methylcarbamate]	30 to 99 (≈ 97.6 to 322 µM)	5 (0.15-0.5 mg/ft^2 (1.6-5.3 mg/m^2))	outstandingly good activity against cockroaches	170	30 to 99 (≈ 97.6 to 322 µM)		300 to 1000 (≈ 976 to 3250 µM)	lower mammalian toxicity than does compound 5	> 35	4 (10-29 mg/ft^2 (107-310 mg/m^2))	as good or better activity against houseflies than does compound 5	higher solubility in organic solvents than is compound 5	much better persistency on sheep				

From patent US4056625A, “Pesticidal compositions containing benzodioxole derivatives and methods of combating pests” (priority 1972, dated 1977)
